For data set [1] the following is noted: at room temperature; cited from earlier work.
Data set [2] can be described thus: particle size of crystallized bulk aripiprazole. The class given is physicochemical.

Each structure is given as a SMILES string.

Usually aqueous solubility stands for how much of the substance goes into solution per volume.

For the molecule `O=C1CCc2ccc(OCCCCN3CCN(c4cccc(Cl)c4Cl)CC3)cc2N1` [Aripiprazole, aripiprazole], in data set [1], the aqueous solubility is under 1 µg/mL. Further, the “particle size (95% of particles)” value in data set [2] (Example 1: impinging jet crystallization with sonication, 2° C. water anti-solvent) is under 100 microns; in data set [2] (Example 2: impinging jet crystallization without sonication, 30° C. water anti-solvent), under 100 microns. Besides, in data set [2] (batch crystallization (comparison)), the particle size stood at 100 microns.

Values taken from patent US9066848B2, “Process for making sterile aripiprazole of desired mean particle size” (Bristol-Myers Squibb Company, priority 2003, dated 2015).
